# Measured values reported in patent publication EP4603105A1, “PHARMACEUTICAL COMPOSITION CONTAINING CYCLIC COMPOUND HAVING SELECTIVE KRAS INHIBITORY EFFECT AGAINST HRAS AND NRAS” (CHUGAI SEIYAKU KABUSHIKI KAISHA, priority 2022, dated 2024).
# Legend:
# HRAS wild-type protein = HRAS wild-type protein (Homo sapiens, UniProt P01112); assay: Binding to HRAS by surface plasmon resonance (SPR), KD and KD ratio to KRAS
# Procedure, shortened: (§1)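 GDP-bound biotin-Avi RAS captured at ~100–300 RU, 30°C, pH 7.4 HBS containing 10 µM GDP, 10 mM MgCl2, 1 mM DTT, 0.01% Tween 20 and 4% DMSO. KD by 1:1 fitting.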
# [1] = system: human lung cancer strain NCI-H441; assay type: cell-based
# Procedure, shortened: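 Readout: […] after the ATP-based reagent. Compound: serial dilutions in dimethyl sulfoxide.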
# [2] = molecular target: GDP-bound NRAS wild-type protein (Homo sapiens, UniProt P01111); assay: Binding to NRAS by surface plasmon resonance (SPR), KD and KD ratio to KRAS
# Procedure, shortened: as §1
# [3] = ratio of KD for HRAS wild-type protein to KD for KRAS
# [4] = ratio of KD for GDP-bound NRAS wild-type protein to KD for KRAS
# HRAS wild-type protein, sequence (P01112 whole entry): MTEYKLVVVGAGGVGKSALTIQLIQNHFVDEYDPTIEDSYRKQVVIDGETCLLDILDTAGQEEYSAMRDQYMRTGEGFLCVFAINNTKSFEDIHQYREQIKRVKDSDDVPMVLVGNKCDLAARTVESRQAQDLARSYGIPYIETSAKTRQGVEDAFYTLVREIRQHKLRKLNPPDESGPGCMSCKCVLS
# GDP-bound NRAS wild-type protein, sequence (P01111 whole entry): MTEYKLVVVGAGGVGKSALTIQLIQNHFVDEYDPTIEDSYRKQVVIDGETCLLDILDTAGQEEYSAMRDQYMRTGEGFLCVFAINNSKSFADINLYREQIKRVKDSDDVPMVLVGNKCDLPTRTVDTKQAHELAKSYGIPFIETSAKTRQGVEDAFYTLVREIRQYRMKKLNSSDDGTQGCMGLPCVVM
SMILES,HRAS /KRAS (HRAS wild-type protein; ratio of the KD value with respect to HRAS wild-type protein to the KD value with respect to KRAS),IC50 [1] [nM],NRAS /KRAS ([2]; ratio of the KD value with respect to GDP-bound NRAS wild-type protein to the KD value with respect to KRAS),HRAS /KRAS (HRAS wild-type protein; [3]),"NRAS /KRAS [2, 4]"
CCC[C@H]1C(=O)N[C@@H]([C@@H](C)CC)C(=O)N2CCC[C@H]2C(=O)N(C)[C@H]2C/C=C\CCN(C2=O)[C@@H](CC2CCC(F)(F)CC2)C(=O)N(C)CC(=O)N[C@@H](CCc2ccc(C(F)(F)F)c(OC)c2)C(=O)N2C[C@H](OCC)C[C@H]2C(=O)N(C)C2(CCC2)C(=O)N(C)[C@@H](C(CC)CC)C(=O)N(C)[C@H](C(=O)N(C)C)CC(=O)N1C [PP2353],A (a compound having 10 or more and less than 20 is denoted as A),68.8,A (a compound having 10 or more and less than 20 is denoted as A),–,–
CCO[C@@H]1C[C@H]2C(=O)NC3(CC(C)(C)C3)C(=O)N(C)[C@@H](C3CCCC3)C(=O)N(C)[C@H](C(=O)N3CCCCC3)CC(=O)N(C)[C@H]3CCC/C=C/c4ccc(cc4)C[C@@H](C(=O)N(C)CC(=O)N[C@@H](CCc4cc(F)c(C(F)(F)F)c(F)c4)C(=O)N2C1)N1CC/C=C\C[C@@H](C1=O)N(C)C(=O)CN(C)C(=O)[C@H]([C@@H](C)CC)NC3=O [PP2573],–,10.1,–,A (a compound having 10 or more and less than 20 is denoted as A),A (a compound having 10 or more and less than 20 is denoted as A)
CCO[C@@H]1C[C@H]2C(=O)NC3(CC(C)(C)C3)C(=O)N(C)[C@@H](C3CCCC3)C(=O)N(C)[C@H](C(=O)N3CCCC3)CC(=O)N(C)[C@H]3CCC/C=C/c4ccc(cc4)C[C@@H](C(=O)N(C)CC(=O)N[C@@H](CCc4cc(F)c(C(F)(F)F)c(F)c4)C(=O)N2C1)N1CC/C=C\C[C@@H](C1=O)N(C)C(=O)CN(C)C(=O)[C@H]([C@@H](C)CC)NC3=O [PP2574],–,4.2,–,A (a compound having 10 or more and less than 20 is denoted as A),A (a compound having 10 or more and less than 20 is denoted as A)
CCO[C@@H]1C[C@H]2C(=O)NC3(CC(C)(C)C3)C(=O)N(C)[C@@H](C(CC)CC)C(=O)N(C)[C@H](C(=O)N(C)C)CC(=O)N(C)[C@H]3CCC/C=C/c4ccc(cc4)C[C@@H](C(=O)N(C)CC(=O)N[C@@H](CCc4cc(F)c(C(F)(F)F)c(F)c4)C(=O)N2C1)N1CC/C=C\C[C@@H](C1=O)N(C)C(=O)CN(C)C(=O)[C@H]([C@@H](C)CC)NC3=O [PP2575],–,4.1,–,A (a compound having 10 or more and less than 20 is denoted as A),A (a compound having 10 or more and less than 20 is denoted as A)
CCO[C@@H]1C[C@H]2C(=O)NC3(CC(C)(C)C3)C(=O)N(C)[C@@H](C(CC)CC)C(=O)N(C)[C@H](C(=O)N3CCCC3)CC(=O)N(C)[C@H]3CCC/C=C/c4ccc(cc4)C[C@@H](C(=O)N(C)CC(=O)N[C@@H](CCc4cc(F)c(C(F)(F)F)c(F)c4)C(=O)N2C1)N1CC/C=C\C[C@@H](C1=O)N(C)C(=O)CN(C)C(=O)[C@H]([C@@H](C)CC)NC3=O [PP2576],–,5.7,–,A (a compound having 10 or more and less than 20 is denoted as A),A (a compound having 10 or more and less than 20 is denoted as A)
CCO[C@@H]1C[C@H]2C(=O)NC3(CC(C)(C)C3)C(=O)N(C)[C@@H](C3CCCC3)C(=O)N(C)[C@H](C(=O)N(C)CC)CC(=O)N(C)[C@H]3CCC/C=C/c4ccc(cc4)C[C@@H](C(=O)N(C)CC(=O)N[C@@H](CCc4ccc(Cl)c(Cl)c4)C(=O)N2C1)N1CC/C=C\C[C@@H](C1=O)N(C)C(=O)CN(C)C(=O)[C@H]([C@@H](C)CC)NC3=O [PP2577],–,4.1,–,A (a compound having 10 or more and less than 20 is denoted as A),A (a compound having 10 or more and less than 20 is denoted as A)
CCO[C@@H]1C[C@H]2C(=O)NC3(CC(C)(C)C3)C(=O)N(C)[C@@H](C3CCCC3)C(=O)N(C)[C@H](C(=O)N3CCCCC3)CC(=O)N(C)[C@H]3CCC/C=C/c4ccc(cc4)C[C@@H](C(=O)N(C)CC(=O)N[C@@H](CCc4ccc(Cl)c(Cl)c4)C(=O)N2C1)N1CC/C=C\C[C@@H](C1=O)N(C)C(=O)CN(C)C(=O)[C@H]([C@@H](C)CC)NC3=O [PP2578],–,17.7,–,A (a compound having 10 or more and less than 20 is denoted as A),AA (a compound having 20 or more is denoted as AA)
CCO[C@@H]1C[C@H]2C(=O)NC3(CC(C)(C)C3)C(=O)N(C)[C@@H](C(CC)CC)C(=O)N(C)[C@H](C(=O)N(C)C)CC(=O)N(C)[C@H]3CCC/C=C/c4ccc(cc4)C[C@@H](C(=O)N(C)CC(=O)N[C@@H](CCc4ccc(Cl)c(Cl)c4)C(=O)N2C1)N1CC/C=C\C[C@@H](C1=O)N(C)C(=O)CN(C)C(=O)[C@H]([C@@H](C)CC)NC3=O [PP2580],–,7.9,–,A (a compound having 10 or more and less than 20 is denoted as A),AA (a compound having 20 or more is denoted as AA)
CCO[C@@H]1C[C@H]2C(=O)NC3(CC(C)(C)C3)C(=O)N(C)[C@@H](C(CC)CC)C(=O)N(C)[C@H](C(=O)N3CCCC3)CC(=O)N(C)[C@H]3CCC/C=C/c4ccc(cc4)C[C@@H](C(=O)N(C)CC(=O)N[C@@H](CCc4ccc(Cl)c(Cl)c4)C(=O)N2C1)N1CC/C=C\C[C@@H](C1=O)N(C)C(=O)CN(C)C(=O)[C@H]([C@@H](C)CC)NC3=O [PP2581],–,32.1,–,A (a compound having 10 or more and less than 20 is denoted as A),AA (a compound having 20 or more is denoted as AA)
CCO[C@@H]1C[C@H]2C(=O)NC3(CC(C)(C)C3)C(=O)N(C)[C@@H](C3CCCC3)C(=O)N(C)[C@H](C(=O)N3CCCC3)CC(=O)N(C)[C@H]3CCC/C=C/c4ccc(cc4)C[C@@H](C(=O)N(C)CC(=O)N[C@@H](CCc4cc(F)c(C(F)(F)F)c(F)c4)C(=O)N2C1)N1CC/C=C\C[C@@H](C1=O)N(C)C(=O)CN(C1CC1)C(=O)[C@H]([C@@H](C)CC)NC3=O [PP2583],–,4.1,–,A (a compound having 10 or more and less than 20 is denoted as A),A (a compound having 10 or more and less than 20 is denoted as A)
CCO[C@@H]1C[C@H]2C(=O)NC3(CC(C)(C)C3)C(=O)N(C)[C@@H](C3CCCC3)C(=O)N(C)[C@H](C(=O)N(C)CC)CC(=O)N(C)[C@H]3CCCC/C=C/c4ccc(cc4)C[C@@H](C(=O)N(C)CC(=O)N[C@@H](CCc4ccc(Cl)c(Cl)c4)C(=O)N2C1)N1CC/C=C\C[C@@H](C1=O)N(C)C(=O)CN(C)C(=O)[C@H]([C@@H](C)CC)NC3=O [PP2592],–,7.9,–,A (a compound having 10 or more and less than 20 is denoted as A),A (a compound having 10 or more and less than 20 is denoted as A)
CCO[C@@H]1C[C@H]2C(=O)NC3(CC(C)(C)C3)C(=O)N(C)[C@@H](C3CCCC3)C(=O)N(C)[C@H](C(=O)N3CCCC3)CC(=O)N(C)[C@H]3CCCC/C=C/c4ccc(cc4)C[C@@H](C(=O)N(C)CC(=O)N[C@@H](CCc4ccc(Cl)c(Cl)c4)C(=O)N2C1)N1CC/C=C\C[C@@H](C1=O)N(C)C(=O)CN(C)C(=O)[C@H]([C@@H](C)CC)NC3=O [PP2593],–,11.5,–,A (a compound having 10 or more and less than 20 is denoted as A),A (a compound having 10 or more and less than 20 is denoted as A)
CCC(CC)[C@H]1C(=O)N(C)[C@H](C(=O)N(C)C)CC(=O)N(C)[C@H]2CCC/C=C/c3ccc(cc3)C[C@@H](C(=O)N(C)CC(=O)N[C@@H](CCc3cc(F)c(C(F)(F)F)c(F)c3)C(=O)N3C[C@H](OC(C)C)C[C@H]3C(=O)NC3(CC(C)(C)C3)C(=O)N1C)N1CC/C=C\C[C@@H](C1=O)N(C)C(=O)CN(C)C(=O)[C@H]([C@@H](C)CC)NC2=O [PP2594],–,6,–,A (a compound having 10 or more and less than 20 is denoted as A),A (a compound having 10 or more and less than 20 is denoted as A)
CC[C@H](C)[C@@H]1NC(=O)[C@@H]2CCC/C=C/c3ccc(cc3)C[C@@H](C(=O)N(C)CC(=O)N[C@@H](CCc3ccc(Cl)c(Cl)c3)C(=O)N3C[C@H](OC(C)C)C[C@H]3C(=O)NC3(CC(C)(C)C3)C(=O)N(C)[C@@H](C3CCCC3)C(=O)N(C)[C@H](C(=O)N(C)CC)CC(=O)N2C)N2CC/C=C\C[C@@H](C2=O)N(C)C(=O)CN(C)C1=O [PP2595],–,12.7,–,B (a compound having 3 or more and less than 10 is denoted as B),A (a compound having 10 or more and less than 20 is denoted as A)
CC[C@H](C)[C@@H]1NC(=O)[C@@H]2CCC/C=C/c3ccc(cc3)C[C@@H](C(=O)N(C)CC(=O)N[C@@H](CCc3ccc(Cl)c(Cl)c3)C(=O)N3C[C@H](OC(C)C)C[C@H]3C(=O)NC3(CC(C)(C)C3)C(=O)N(C)[C@@H](C3CCCC3)C(=O)N(C)[C@H](C(=O)N3CCCC3)CC(=O)N2C)N2CC/C=C\C[C@@H](C2=O)N(C)C(=O)CN(C)C1=O [PP2596],–,13.7,–,A (a compound having 10 or more and less than 20 is denoted as A),A (a compound having 10 or more and less than 20 is denoted as A)
CCO[C@@H]1C[C@H]2C(=O)NC3(CC(C)(C)C3)C(=O)N(C)[C@@H](C3CCCC3)C(=O)N(C)[C@H](C(=O)N3CCCCC3)CC(=O)N(C)[C@H]3CC/C=C/c4ccc(cc4)C[C@@H](C(=O)N(C)CC(=O)N[C@@H](CCc4ccc(Cl)c(Cl)c4)C(=O)N2C1)N1CC/C=C\C[C@@H](C1=O)N(C)C(=O)CN(C)C(=O)[C@H]([C@@H](C)CC)NC3=O [PP2597],–,20.1,–,A (a compound having 10 or more and less than 20 is denoted as A),A (a compound having 10 or more and less than 20 is denoted as A)
